According to PubChem BioAssay AID248 (DTP/NCI, 2004):
Toxic doses and inconclusive results are not listed. No stated cut-off is given here; in the data, active means T/C of 150% or more; inactive means T/C below 125%.

Test system: L1210 leukemia ip in BDF1 mice, survival T/C
Assay: NCI In Vivo Anticancer Drug Screen. Data for tumor model L1210 Leukemia (intraperitoneal) in B6D2F1 (BDF1) mice
Details: endpoint: mean survival time, vehicle: saline, higher = longer survival
How it was run: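 Ratio derived from survival: compound-dosed mice over vehicle-dosed mice, all bearing a transplantable tumor.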

Measured: T/C

NCCCC(=O)O
inactive: dose: 100.0 mg/kg/injection, schedule: Q01DX001 (ip) 99 % of control | dose: 100.0 mg/kg/injection, schedule: Q01DX009 (ip) 100 % of control | dose: 100.0 mg/kg/injection, schedule: Q04DX003 (ip) 103 % of control | dose: 200.0 mg/kg/injection, schedule: Q01DX001 (ip) 105 % of control | dose: 200.0 mg/kg/injection, schedule: Q01DX009 (ip) 90 % of control | dose: 200.0 mg/kg/injection, schedule: Q04DX003 (ip) 98 % of control | dose: 400.0 mg/kg/injection, schedule: Q01DX001 (ip) 101 % of control | dose: 400.0 mg/kg/injection, schedule: Q01DX009 (ip) 94 % of control | dose: 400.0 mg/kg/injection, schedule: Q04DX003 (ip) 101 % of control
